Experiments:
HDAC6 = HDAC6 (Homo sapiens (Human), UniProt Q9UBN7); assay: HDAC6 fluorescence analysis, inhibition of HDAC6 activity; type: biochemical; details: HDAC6 0.3 nM solution, substrate 15 μM, fluorescence readout; read-out: IC50, inhibitory effect on HDAC6
Procedure: HDAC6 fluorescence analysis method was used to detect the inhibitory effect of the compounds on the activity of HDAC6. The specific operation is as follows:
Prepare a 10 mM stock solution of a compound with DMSO. Take 10 μl of stock solution and dilute with 90 μl DMSO to become a 1 mM working solution. […] Add 3 μl of each concentration to 197 μl reaction buffer (20 mM Hepes pH 8.0, 137 mM NaCl, 2.7 mM KCl, 1 mM MgCl2, 0.05% BSA, 0.5 mM TCEP), mix well and add 10 μl to a 384-well plate. In the final reaction system, the concentrations of the compound were 10 μM to 0.51 nM. Duplicate, and add 10 μl 3XHDAC solution (BPS, Cat. 50006, 0.3 nM) to each well, followed by incubating at 23° C. for 20 minutes. Then, add 3× substrate solution (Anaspec, Cat. 61855, 15 μM), centrifuge to mix, and incubate at 23° C. for 90 minutes. Add 30 μl trypsin/SAHA mixture (20 mM Hepes pH 8.0, 100 mM NaCl, 10 mM SAHA, 0.01 mg/ml trypsin), incubate at 23° C. for 60 minutes to terminate the reaction. Finally, read fluorescence data by Envision (390 nm excitation, 460 nm emission). […] Finally, analyze the data by XLfit5 software and calculate the IC50 value of the compound. Vorinostat (SAHA) was a positive reference compound.

VEGFR2 (KDR) = VEGFR2 (KDR) (Homo sapiens (Human), UniProt P35968); assay: VEGFR2 (KDR) mobility shift assay; type: biochemical; details: VEGFR2 0.5 nM, ATP 95 μM, read-out: IC50, inhibitory effect on kinase VEGFR2
Sequence of VEGFR2 (KDR) (P35968 790-1356): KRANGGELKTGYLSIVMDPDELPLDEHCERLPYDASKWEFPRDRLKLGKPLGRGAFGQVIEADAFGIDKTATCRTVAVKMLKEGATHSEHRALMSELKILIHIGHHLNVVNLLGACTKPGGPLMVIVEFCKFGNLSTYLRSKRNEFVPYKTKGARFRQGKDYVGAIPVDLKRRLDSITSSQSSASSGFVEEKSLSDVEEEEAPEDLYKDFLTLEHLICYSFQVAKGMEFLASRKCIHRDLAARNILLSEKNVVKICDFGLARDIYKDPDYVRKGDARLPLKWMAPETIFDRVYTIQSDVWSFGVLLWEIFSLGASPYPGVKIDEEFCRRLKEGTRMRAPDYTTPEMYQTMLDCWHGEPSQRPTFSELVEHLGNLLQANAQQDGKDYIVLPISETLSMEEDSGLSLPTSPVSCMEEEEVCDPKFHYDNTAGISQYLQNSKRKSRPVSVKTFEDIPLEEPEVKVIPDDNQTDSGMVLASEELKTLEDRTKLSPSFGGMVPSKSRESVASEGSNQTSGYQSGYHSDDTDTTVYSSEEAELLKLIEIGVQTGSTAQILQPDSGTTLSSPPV
Procedure: Detect compounds on VEGFR2 (KDR) by mobility shift assay. The initial test concentration of a compound was 1000 nM, 3 times dilution, 10 concentrations, and detection in duplicate. Nintedanib (Selleckchem, Cat. S1010) was used as the positive control compound. The operation method was briefly described as follows: kinase VEGFR2 (Carna, Cat. 08-191) at the final concentration of 0.5 nM and the test compound were mixed in the Optiplate-384F well plate and incubated for 10 minutes at room temperature. Then, ATP at a final concentration of 95 μM and 3 μM Kinase substrate 22 (Gill Biochemical (glbiochem), Cat. 112393) were added. After mixing, react at room temperature for 30 minutes. Add stop detection solution to terminate the reaction and read the conversion rate with Caliper EZ ReaderlI.
Wherein, Conversion %_sample refers to the conversion rate reading of the sample; Conversion %_min: the average value of the negative control wells, which represents the conversion rate readings of the wells without enzyme activity; Conversion %_max: the average value of the positive control wells, represents the conversion rate readings of the wells without compound inhibition.
Fitting the dose-response curve: Take the log of the concentration as the X-axis, and the percentage of inhibition rate as the Y-axis. The dose response curve was fitted by the analysis software GraphPad Prism 5 with log(inhibitor) vs. response—Variable slope to obtain the inhibitory activity (IC50) of each compound.

[1] = Pharmacokinetic experiment in rats after intragastric administration; type: in vivo; details: rat, po, female SD rats, 10 mg/kg, plasma
Procedure: The female SD rats were divided into groups, 3 rats in each group, and the example compounds 10, 12, 24, 57, 61, 89, 90, 93, 94, 96 (10 mg/kg) were administered by intragastric administration. Fasting overnight before administration, and the fasting time was from 10 hours before administration to 4 hours after administration. Blood was collected at 0.25, 0.5, 1, 2, 4, 8 and 24 hours after administration. Small animal anesthesia machine was used for isoflurane anesthesia. After that, 0.3 mL of whole blood was collected from the fundus venous plexus and placed in a heparin anticoagulation tube. The sample was centrifuged at 4° C., 4000 rpm, for 5 minutes, and the plasma was transferred to a centrifuge tube, and stored at −80° C. until analysis. The plasma sample was extracted by protein precipitation method, and the extract was processed and analyzed by LC/MS/MS.

Sequence of HDAC6 (Q9UBN7 whole entry): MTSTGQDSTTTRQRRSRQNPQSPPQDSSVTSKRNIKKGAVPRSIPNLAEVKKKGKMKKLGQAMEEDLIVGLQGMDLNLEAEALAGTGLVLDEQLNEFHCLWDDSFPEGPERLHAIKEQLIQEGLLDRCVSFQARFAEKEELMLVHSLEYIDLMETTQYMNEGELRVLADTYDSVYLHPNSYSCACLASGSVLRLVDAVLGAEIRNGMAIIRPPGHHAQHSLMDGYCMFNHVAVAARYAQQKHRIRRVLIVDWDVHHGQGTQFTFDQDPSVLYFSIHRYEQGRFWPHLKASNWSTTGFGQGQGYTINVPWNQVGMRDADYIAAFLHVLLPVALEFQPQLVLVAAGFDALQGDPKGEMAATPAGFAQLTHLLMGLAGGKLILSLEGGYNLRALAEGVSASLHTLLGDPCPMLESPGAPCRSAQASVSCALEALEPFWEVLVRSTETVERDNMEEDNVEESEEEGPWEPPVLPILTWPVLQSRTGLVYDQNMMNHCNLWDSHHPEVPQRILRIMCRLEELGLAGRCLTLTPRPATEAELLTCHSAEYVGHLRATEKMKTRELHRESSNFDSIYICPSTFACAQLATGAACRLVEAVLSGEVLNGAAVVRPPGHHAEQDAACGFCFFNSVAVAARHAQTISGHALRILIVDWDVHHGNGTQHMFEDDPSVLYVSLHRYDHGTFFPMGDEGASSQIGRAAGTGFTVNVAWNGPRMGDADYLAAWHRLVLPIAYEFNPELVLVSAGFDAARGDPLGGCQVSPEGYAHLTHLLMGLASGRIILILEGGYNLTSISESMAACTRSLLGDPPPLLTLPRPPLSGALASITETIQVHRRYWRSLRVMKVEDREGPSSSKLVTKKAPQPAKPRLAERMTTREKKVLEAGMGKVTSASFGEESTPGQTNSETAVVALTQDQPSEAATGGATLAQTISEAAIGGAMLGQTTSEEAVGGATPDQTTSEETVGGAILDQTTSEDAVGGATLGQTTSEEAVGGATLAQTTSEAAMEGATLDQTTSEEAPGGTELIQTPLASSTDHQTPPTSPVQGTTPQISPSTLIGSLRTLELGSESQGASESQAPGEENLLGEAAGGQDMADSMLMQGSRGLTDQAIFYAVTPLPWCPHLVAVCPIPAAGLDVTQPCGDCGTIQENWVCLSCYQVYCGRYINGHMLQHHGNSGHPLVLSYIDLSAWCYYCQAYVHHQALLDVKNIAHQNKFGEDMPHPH

| SMILES | IC50 (HDAC6) | IC50 (VEGFR2 (KDR)) | AUC(0-inf) [1] | Cmax [1] | Tmax [1] | half-life [1] |
| --- | --- | --- | --- | --- | --- | --- |
| COc1cc2nccc(Oc3ccc(NC(=O)C4(C(=O)Nc5ccc(F)cc5)CC4)cc3)c2cc1OC [Cabozantinib, reference compound] | > 10000 nM |  |  |  |  |  |
| COc1cc2c(Oc3ccc(NC(=O)C4(C(=O)Nc5ccc(F)cc5)CC4)cc3F)ccnc2cc1OCCCCSC(C)=O [Example 6, S-(4-((4-(2-Fluoro-4-(1-((4-fluorophenyl)aminoformyl)cyclopropane-1-carboxamido)phenoxy)-6-methoxyquinolin-7-yl)oxy)butyl)-acetylthioester] |  | 79 nM |  |  |  |  |
| COc1cc2c(Oc3ccc(NC(=O)C4(C(=O)Nc5ccc(F)cc5)CC4)cc3F)ccnc2cc1OCCCCS [Example 7, N-(3-fluoro-4-((7-(4-mercaptobutoxy)-6-methoxyquinolin-4-yl)oxy)phenyl)-N-(4-fluorophenyl) cyclopropane-1,1-diformamide] |  | 57 nM |  |  |  |  |
| COc1cc2c(Oc3ccc(NC(=O)C4(C(=O)Nc5ccc(F)cc5)CC4)cc3F)ccnc2cc1OCCCCCCSC(C)=O [Example 10, S-(6-((4-(2-fluoro-4-(1-((4-fluorophenyl)aminoformyl)cyclopropane-1-carboxamido)phenoxy)-6-methoxyquinolin-7-yl)oxy)hexyl)-acetylthioester] |  |  | 468 ng·h/mL | 377 ng/mL | 50 min | 74.4 min |
| COc1cc2c(Oc3ccc(NC(=O)C4(C(=O)Nc5ccc(F)cc5)CC4)cc3F)ccnc2cc1OCCCCCCCSC(C)=O [Example 12, S-(7-((4-(2-fluoro-4-(1-((4-fluorophenyl)aminoformyl)cyclopropane-1-carboxamido)phenoxy)-6-methoxyquinolin-7-yl)oxy)heptyl)-acetylthioester] | 67.8 nM |  | 1870 ng·h/mL | 946 ng/mL | 60 min | 180 min |
| COc1cc2c(Oc3ccc(NC(=O)C4(C(=O)Nc5ccc(F)cc5)CC4)cc3F)ccnc2cc1OCCCCCCCS [Example 13, N-(3-fluoro-4-((7-(7-mercaptoheptyloxy)-6-methoxyquinolin-4-yl)oxy)phenyl)-N-(4-fluorophenyl) cyclopropane-1,1-diformamide] | 18 nM |  |  |  |  |  |
| COc1cc2c(Oc3ccc(NC(=O)C4(C(=O)Nc5ccc(F)cc5)CC4)cc3F)ccnc2cc1OC/C=C/CCCCSC(C)=O [Example 24, (E)-S-(7-((4-(2-fluoro-4-(1-((4-fluorophenyl)aminoformyl)cyclopropane-1-carbamoyl)phenoxy)-6-methoxyquinolin-7-yl)oxy)heptyl-5-en-1-yl)acetylthio ester] |  |  | 1070 ng·h/mL | 430 ng/mL | 79.8 min | 401 min |
| COc1cc2c(Oc3ccc(NC(=O)C4(C(=O)Nc5ccc(F)cc5)CC4)cc3F)ccnc2cc1OC/C=C/CCCCS [Example 25, (E)-N-(3-fluoro-4-((7-((7-mercaptoheptyl-2-en-1-yl)oxy)-6-methoxyquinolin-4-yl)oxy)phenyl)-N-(4-fluorophenyl)cyclopropane-1,1-diformamide] | 34.8 nM | 79 nM |  |  |  |  |
| COc1cc2c(Oc3ccc(NC(=O)C4(C(=O)Nc5ccc(F)cc5)CC4)cc3F)ccnc2cc1OC/C=C/CCCS [Example 27, (E)-N-(3-fluoro-4-((7-((6-mercaptohexyl-2-en-1-yl)oxy)-6-methoxyquinolin-4-yl)oxy)phenyl)-N-(4-fluorophenyl)cyclopropane-1,1-dimethylamid] |  | 33 nM |  |  |  |  |
| COc1cc2c(Oc3ccc(NC(=O)C4(C(=O)Nc5ccc(F)cc5)CC4)cc3F)ccnc2cc1OCCCSc1nnc(S)s1 [Example 54, N-(3-fluoro-4-((7-(3-((5-thio-1,3,4-trithiazol-2-yl)sulfanyl)propoxy)-6-methoxyquinolin-4-yl)oxy)phenyl)-N-(4-fluorophenyl)cyclopropane-1,1-diformamide] |  | 54 nM |  |  |  |  |
| COc1cc2c(Oc3ccc(NC(=O)C4(C(=O)Nc5ccc(F)cc5)CC4)cc3F)ccnc2cc1OCCNC(=O)NCCSC(C)=O [Example 55] |  | 30 nM |  |  |  |  |
| COc1cc2c(Oc3ccc(NC(=O)C4(C(=O)Nc5ccc(F)cc5)CC4)cc3F)ccnc2cc1OCCCCCNC(=O)CSC(C)=O [Example 57, S-(2-((5-((4-(2-fluoro-4-(1-((4-fluorophenyl)carbamoyl)cyclopropane-1-carboxamido)phenoxy)-6-methoxyquinolin-7-yl)oxy)pentyl)amino)-2-oxo-ethyl)thioacetate] |  |  | 2790 ng·h/mL | 1590 ng/mL | 19.8 min | 385 min |
| COc1cc2c(Oc3ccc(NC(=O)C4(C(=O)Nc5ccc(F)cc5)CC4)cc3F)ccnc2cc1OCCCCNC(=O)CSC(C)=O [Example 61] |  |  | 175 ng·h/mL | 121 ng/mL | 30 min | 110 min |
| COc1cc2c(Oc3ccc(NC(=O)C4(C(=O)Nc5ccc(F)cc5)CC4)cc3)ccnc2cc1OCCCCCNC(=O)CSC(C)=O [Example 65] |  | 13 nM |  |  |  |  |
| CC(=O)SCCCCCCOc1cc2nccc(Oc3ccc(NC(=O)NC4CC4)c(Cl)c3)c2cc1C(N)=O [Example 86, S-(7-((6-carbamoyl-4-(3-chloro-4-(3-cyclopropylurea)phenoxy)quinolin-7-yl)oxy)hexyl)thioacetate] |  | 2.6 nM |  |  |  |  |
| COc1cc2c(Oc3ccc(NC(=O)C4(C(=O)Nc5ccc(F)cc5)CC4)cc3F)ccnc2cc1OCCCCCNC(=O)CSC(=O)C(C)(C)C [Example 89, S-(2-((5-((4-(2-fluoro-4-(1-((4-fluorophenyl)carbamoyl)cyclopropane-1-carboxamido)phenoxy)-6-methoxyquinolin-7-yl)oxo)phenyl)amino)-2-oxo-ethyl)2,2-dimethylthiopropionate] |  |  | 1650 ng·h/mL | 1000 ng/mL | 50 min | 356 min |
| CCCCCCCC(=O)SCC(=O)NCCCCCOc1cc2nccc(Oc3ccc(NC(=O)C4(C(=O)Nc5ccc(F)cc5)CC4)cc3F)c2cc1OC [Example 90] |  |  | 689 ng·h/mL | 852 ng/mL | 20 min | 255 min |
| COc1cc2c(Oc3ccc(NC(=O)C4(C(=O)Nc5ccc(F)cc5)CC4)cc3F)ccnc2cc1OCCCCCNC(=O)CSC(=O)[C@H](N)Cc1cn(C)c2ccccc12 [Example 93, S-(2-((5-((4-(2-fluoro-4-(1-((4-fluorophenyl)carbamoyl)cyclopropane-1-carboxamido)phenoxy)-6-methoxyquinolin-7-yl)oxy)pentyl)amino)-2-oxo-ethyl)-(R)-2-amino-3-(1-methyl-1H-indol-3-yl)thiopropionate benzenesulfonate] |  |  | 790 ng·h/mL | 429 ng/mL | 40 min | 329 min |
| COc1cc2c(Oc3ccc(NC(=O)C4(C(=O)Nc5ccc(F)cc5)CC4)cc3F)ccnc2cc1OCCCCCNC(=O)CSC(=O)[C@@H](Cc1cn(C)c2ccccc12)NC(C)=O [Example 94, S-(2-((5-((4-(2-Fluoro-4-(1-((4-fluorophenyl)carbamoyl)cyclopropane-1-carboxamido)phenoxy)-6-methoxyquinolin-7-yl)oxy)pentyl)amino)-2-oxo-ethyl)-(R)-2-acetylamino-3-(1-methyl-1H-indol-3-yl)thiopropionate] |  |  | 499 ng·h/mL | 289 ng/mL | 30 min | 368 min |
| COc1cc2c(Oc3ccc(NC(=O)C4(C(=O)Nc5ccc(F)cc5)CC4)cc3F)ccnc2cc1OCCCCCNC(=O)CSSC [Example 96, N-(3-fluoro-4-((6-methoxy-7-((5-(2-(methyldisulfanyl)acetylamino)pentyl)oxy)quinolin-4-yl)oxy)phenyl)-N-(4-fluorophenyl)cyclopropyl-1,1-diformamide] |  |  | 1040 ng·h/mL | 724 ng/mL | 25 min | 415 min |

— patent US12304898B2, “Quinolyl-containing compound and pharmaceutical composition, and use thereof” (PrimeGene (Beijing) Co., Ltd., priority 2019, dated 2025)
